# Measured values published in patent publication US8293511B2, “Production of β-Lactam antibiotics” (DSM IP Assets B.V., priority 2006, dated 2012).
# How the values were obtained:
# [1] = tested on: Bacillus subtilis ATCC6633; assay: Bioassay development: growth in 2xTY medium with serial dilutions of antibiotic, OD600; type: cell-based; conditions: 16 hours
# Method: (§1) The bacterial strains Escherichia coli ESS, Bacillus subtilis ATCC6633 and Micrococcus luteus ATCC9341 were grown overnight in 2×TY-medium at 30° C. and 280 rpm. After 16 hours of growth, the OD^600 was measured. Typically, the OD^600 amounts 5.0, ranging from 2.0 to 8.0.
# (§2) A solution of amoxicillin was made at a concentration of 7 mg/ml. Subsequently, serial dilutions were made ranging from 1 mg/l down to 0.001 mg/l. MilliQ water served as a negative control.
# (§3) In a 96 wells microplate, 25 μl of the serial dilutions were pipetted in the wells. Each microplate was prepared in duplicate. The overnight bacterial cultures were diluted in fresh 2×TY-medium to a final OD^600 of 0.01. To each well, 150 μl of the diluted bacterial cultures was added. The microplates were covered with a lid, and incubated overnight at 25° C. and the duplicate microplate at 37° C.
# (§4) After 16 hours of incubation, the OD^600 was read in a microplate reader. From the results, the concentration of amoxicillin still allowing uninhibited growth of the test microorganisms can be read.
# (§5) A solution of ampicillin was made at a concentration of 7 mg/ml. Subsequently, serial dilutions were made ranging from 1 mg/l down to 0.001 mg/l. MilliQ water served as a negative control.
# as §3, with “gas permeable adhesive seal,” for “lid,”
# (§6) After 16 hours of incubation, the OD^600 was read in a microplate reader. From the results, the concentration of ampicillin still allowing uninhibited growth of the test microorganisms can be read.
# [2] = tested on: Micrococcus luteus ATCC9341; assay: as above; type: cell-based; conditions: 16 hours
# Method: as §1, §2, §3, §4, §5
# as §3, with “gas permeable adhesive seal,” for “lid,”
# as §6
# [3] = tested on: Escherichia coli ESS (DS10031); assay: as above; type: cell-based; conditions: 16 hours
# Method: as §1, §2, §3, §4, §5
# as §3, with “gas permeable adhesive seal,” for “lid,”
# as §6
# IPNS = conditions: Huffman et al. J. Med. Chem. 1992; cited from earlier work
compound,measurement,setting,value
"CC1(C)S[C@@H]2[C@H](NC(=O)[C@H](N)c3ccc(O)cc3)C(=O)N2[C@H]1C(=O)O [Amoxicillin, amoxicillin]",Concentration of amoxicillin still allowing uninhibited growth in 2xTY medium,[1]; at 25° C.,1.0 mg/L
same,Concentration of amoxicillin still allowing uninhibited growth in 2xTY medium,[1]; at 37° C.,5 mg/L
same,Concentration of amoxicillin still allowing uninhibited growth in 2xTY medium,[2]; at 25° C.,0.001 mg/L
same,Concentration of amoxicillin still allowing uninhibited growth in 2xTY medium,[2]; at 37° C.,0.002 mg/L
same,Concentration of amoxicillin still allowing uninhibited growth in 2xTY medium,[3]; at 25° C.,0.1 mg/L
same,Concentration of amoxicillin still allowing uninhibited growth in 2xTY medium,[3]; at 37° C.,0.1 mg/L
"CC1(C)S[C@@H]2[C@H](NC(=O)[C@H](N)c3ccccc3)C(=O)N2[C@H]1C(=O)O [Ampicillin, ampicillin]",Concentration of ampicillin still allowing uninhibited growth in 2xTY medium,[1]; at 25° C.,0.5 mg/L
same,Concentration of ampicillin still allowing uninhibited growth in 2xTY medium,[1]; at 37° C.,2.5 mg/L
same,Concentration of ampicillin still allowing uninhibited growth in 2xTY medium,[2]; at 25° C.,0.001 mg/L
same,Concentration of ampicillin still allowing uninhibited growth in 2xTY medium,[2]; at 37° C.,0.002 mg/L
same,Concentration of ampicillin still allowing uninhibited growth in 2xTY medium,[3]; at 25° C.,0.05 mg/L
same,Concentration of ampicillin still allowing uninhibited growth in 2xTY medium,[3]; at 37° C.,0.05 mg/L
CC(C)[C@@H](NC(=O)[C@H](CS)NC(=O)Cc1ccc(O)cc1)C(=O)O [p-hydroxyphenylacetyl-L-cysteinyl-D-valine],Antibiotic activity after treatment of the substrate with IPNS,IPNS,not to result in antibiotic activity
m-COOH-DL-phenylglycyl-L-cysteinyl-D-valine,Antibiotic activity after treatment of the substrate with IPNS,IPNS,not to result in antibiotic activity
